Data from patent US12325697B2 (Nimbus Clio, Inc., priority 2021, dated 2025).

Assays:
[1] = tested on: Phospho-Zap70 (Y-319) in Jurkat wild-type (clone E6-1) cells; assay: Jurkat pZAP70 HTRF Assay; format: cell-based; details: Homo sapiens, anti-CD3 5 μg/ml, 3 hr, read-out: ZAP70 Jurkat EC50
[2] = tested on: Jurkat (clone E6-1) cells, NFAT luciferase reporter; assay: Jurkat Reporter Assay (NFAT Luciferase); format: cell-based; details: Homo sapiens, anti-CD3 stimulation, 6 hr, read-out: Jurkat NFAT EC50
[3] = molecular target: Recombinant human Cbl-b (aa 36-427) (Homo sapiens (Human), UniProt Q13191); assay: Cbl-b Biochemical Assay (TR-FRET); details: read-out: TR-FRET hCbl-b IC50
Recombinant human Cbl-b (aa 36-427), sequence (Q13191 36-427): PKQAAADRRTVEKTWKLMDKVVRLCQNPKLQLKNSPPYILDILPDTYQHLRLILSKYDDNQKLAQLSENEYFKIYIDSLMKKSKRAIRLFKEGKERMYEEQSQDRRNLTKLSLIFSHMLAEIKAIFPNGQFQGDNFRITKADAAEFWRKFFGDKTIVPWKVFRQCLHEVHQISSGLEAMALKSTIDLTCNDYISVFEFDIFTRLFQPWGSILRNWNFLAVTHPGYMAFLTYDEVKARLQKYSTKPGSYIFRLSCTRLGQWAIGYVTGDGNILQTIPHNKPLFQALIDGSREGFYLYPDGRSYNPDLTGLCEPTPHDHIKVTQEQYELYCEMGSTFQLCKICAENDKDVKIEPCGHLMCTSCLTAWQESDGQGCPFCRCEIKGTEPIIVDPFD
Procedure, shortened: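 Two-step TR-FRET: 6 nM biotinylated Cbl-b preincubated 30-60 min with compound, then 60 min at RT with 1-2.5 nM Src-Zap70 and 0.5 mM ATP in HEPES pH 7.0 buffer, 1% DMSO. Stopped with 5 mM EDTA plus 100 nM UBE2D2-Ub-FL-BODIPY and 1 nM streptavidin-Tb, 60 min; 520 nm signal; IC50 from 4-parameter fit.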

SMILES | EC50 [1] [µM] | EC50 [2] [µM] | IC50 [3] [µM]
Cn1cnnc1-c1ccccc1-c1cc(C2CC2)nc(N2Cc3cc(F)c(CNCC4(O)CCC4)cc3C2=O)c1 [AEI-5, 2-{6-Cyclopropyl-4-[2-(4-methyl-1,2,4-triazol-3-yl)phenyl]pyridin-2-yl}-5-fluoro-6-({[(1-hydroxycyclobutyl)methyl]amino}methyl)-3H-isoindol-1-one] | < 0.2 | < 0.2 | ≤ 0.2
CCNc1cc(-c2c(-c3nncn3C)cnn2C)cc(N2Cc3c(cc(CN(C)CC4(O)CCC4)cc3C(F)(F)F)C2=O)n1 [AEJ-3, 2-(6-(Ethylamino)-4-(1-methyl-4-(4-methyl-4H-1,2,4-triazol-3-yl)-1H-pyrazol-5-yl)pyridin-2-yl)-6-((((1-hydroxycyclobutyl)methyl)(methyl)amino)methyl)-4-(trifluoromethyl)isoindolin-1-one] | < 0.2 | < 0.2 | ≤ 0.2
CCNc1cc(-c2ccc(C#N)cc2-c2nncn2C)cc(N2Cc3c(cc(CN[C@@H]4CCC[C@@H]4O)cc3C(F)(F)F)C2=O)n1 [AEL-2, 4-[2-(Ethylamino)-6-[6-({[(1R,2S)-2-hydroxycyclopentyl]amino}methyl)-1-oxo-4-(trifluoromethyl)-3H-isoindol-2-yl]pyridin-4-yl]-3-(4-methyl-1,2,4-triazol-3-yl) benzonitrile] | < 0.2 | < 0.2 | ≤ 0.2
COc1cc2c(cc1CNCC1(O)CCC1)C(=O)N(c1cc(-c3ccccc3-c3nncn3C)cc(C3CC3)n1)C2 [AEM-9, 2-(6-Cyclopropyl-4-(2-(4-methyl-4H-1,2,4-triazol-3-yl)phenyl)pyridin-2-yl)-6-((((1-hydroxycyclobutyl)methyl)amino)methyl)-5-methoxyisoindolin-1-one] | < 0.2 | < 0.2 | ≤ 0.2
COCCNCc1cc2c(c(C(F)(F)F)c1)CN(c1cc(-c3ccc(C#N)cc3-c3nncn3C)cc(C3CC3)n1)C2=O [AEN-1, 4-[2-Cyclopropyl-6-(6-{[(2-methoxyethyl)amino]methyl}-1-oxo-4-(trifluoromethyl)-3H-isoindol-2-yl)pyridin-4-yl]-3-(4-methyl-1,2,4-triazol-3-yl)benzonitrile] | < 0.2 | < 0.2 | ≤ 0.2
Cn1cnnc1-c1cc(C#N)ccc1-c1cc(C2CC2)nc(N2Cc3c(cc(CNCCO)cc3C(F)(F)F)C2=O)c1 [AEO-2, 4-[2-Cyclopropyl-6-(6-{[(2-hydroxyethyl)amino]methyl}-1-oxo-4-(trifluoromethyl)-3H-isoindol-2-yl)pyridin-4-yl]-3-(4-methyl-1,2,4-triazol-3-yl) benzonitrile] | < 0.2 | < 0.2 | ≤ 0.2
CCNc1cc(-c2c(-c3nncn3C)cnn2C)cc(N2Cc3c(cc(CNCC4(OC)CCC4)cc3C(F)(F)F)C2=O)n1 [AEQ-3, 2-[6-(Ethylamino)-4-[2-methyl-4-(4-methyl-1,2,4-triazol-3-yl)pyrazol-3-yl]pyridin-2-yl]-6-({[(1-methoxycyclobutyl)methyl]amino}methyl)-4-(trifluoromethyl)-3H-isoindol-1-one] | < 0.2 | < 0.2 | ≤ 0.2
Cn1cnnc1-c1cc(C#N)ccc1-c1cc(C2CC2)nc(N2Cc3c(cc(CO)cc3C(F)(F)F)C2=O)c1 [AES-1, 4-(2-Cyclopropyl-6-(6-(hydroxymethyl)-1-oxo-4-(trifluoromethyl)isoindolin-2-yl)pyridin-4-yl)-3-(4-methyl-4H-1,2,4-triazol-3-yl)benzonitrile] | 0.2 to 1 | < 0.2 | ≤ 0.2
CCNc1cc(-c2ccc(C#N)cc2-c2nncn2C)cc(N2Cc3c(cc(CN[C@@H]4CCC[C@@H]4F)cc3C(F)(F)F)C2=O)n1 [AET-6, 4-[2-(Ethylamino)-6-[6-({[(1R,2S)-2-fluorocyclopentyl]amino}methyl)-1-oxo-4-(trifluoromethyl)-3H-isoindol-2-yl]pyridin-4-yl]-3-(4-methyl-1,2,4-triazol-3-yl) benzonitrile] | < 0.2 | < 0.2 | ≤ 0.2
CCNc1cc(-c2ccc(C#N)cc2-c2nncn2C)cc(N2Cc3c(cc(OC)cc3C(F)(F)F)C2=O)n1 [AEU-8, 4-[2-(Ethylamino)-6-[6-methoxy-1-oxo-4-(trifluoromethyl)-3H-isoindol-2-yl]pyridin-4-yl]-3-(4-methyl-1,2,4-triazol-3-yl)benzonitrile] | 0.2 to 1 | < 0.2 | ≤ 0.2
CCNc1cc(-c2ccc(C#N)cc2-c2nncn2C)cc(N2Cc3c(cc(COC4CC4)cc3C(F)(F)F)C2=O)n1 [AEV-3, 4-{2-[6-(Cyclopropoxymethyl)-1-oxo-4-(trifluoromethyl) -3H-isoindol-2-yl]-6-(ethylamino)pyridin-4-yl}-3-(4-methyl-1,2,4-triazol-3-yl) benzonitrile] | 1 to 10 | < 0.2 | ≤ 0.2
CCOc1cc(-c2ccc(C#N)cc2-c2nncn2C)cc(N2Cc3c(cc(CO)cc3C(F)(F)F)C2=O)n1 [AEW-2, 4-{2-Ethoxy-6-[6-(hydroxymethyl)-1-oxo-4-(trifluoromethyl)-3H-isoindol-2-yl]pyridin-4-yl}-3-(4-methyl-1,2,4-triazol-3-yl)benzonitrile] | 0.2 to 1 | < 0.2 | ≤ 0.2
Cn1cnnc1-c1cc(F)ccc1-c1cc(C2CC2)nc(N2Cc3c(cc(CNCC4(O)CCC4)cc3C(F)(F)F)C2=O)c1 [AEY-1, 2-{6-Cyclopropyl-4-[4-fluoro-2-(4-methyl-1,2,4-triazol-3-yl)phenyl]pyridin-2-yl}-6-({[(1-hydroxycyclobutyl)methyl]amino}methyl)-4-(trifluoromethyl)-3H-isoindol-1-one] | < 0.2 | < 0.2 | ≤ 0.2
CCNc1cc(-c2ccc(C#N)cc2-c2nncn2C)cc(N2Cc3c(cc(COCC4(O)CCC4)cc3C(F)(F)F)C2=O)n1 [AEZ-1, 4-[2-(ethylamino)-6-(6-{[(1-hydroxycyclobutyl)methoxy]methyl}-1-oxo-4-(trifluoromethyl)-3H-isoindol-2-yl)pyridin-4-yl]-3-(4-methyl-1,2,4-triazol-3-yl) benzonitrile] | 0.2 to 1 | < 0.2 | ≤ 0.2
CCNc1cc(-c2ccc(C#N)cc2-c2nncn2C)cc(N2Cc3c(cc(NC)cc3C(F)(F)F)C2=O)n1 [AFA-2, 4-[2-(ethylamino)-6-[6-(methylamino)-1-oxo-4-(trifluoromethyl)-3H-isoindol-2-yl]pyridin-4-yl]-3-(4-methyl-1,2,4-triazol-3-yl)benzonitrile] | 0.2 to 1 | < 0.2 | ≤ 0.2
CCNc1cc(-c2ccc(C#N)cc2-c2nncn2C)cc(N2Cc3c(cc(COCC(C)(C)O)cc3C(F)(F)F)C2=O)n1 [AFE-1, 4-[2-(ethylamino)-6-{6-[(2-hydroxy-2-methylpropoxy)methyl]-1-oxo-4-(trifluoromethyl)-3H-isoindol-2-yl}pyridin-4-yl]-3-(4-methyl-1,2,4-triazol-3-yl)benzonitrile] | 0.2 to 1 | < 0.2 | ≤ 0.2
CCNc1cc(-c2ccc(F)cc2-c2nncn2C)cc(N2Cc3c(cc(COCC4(O)CCC4)cc3C(F)(F)F)C2=O)n1 [AFF-2, 2-[6-(Ethylamino)-4-[4-fluoro-2-(4-methyl-1,2,4-triazol-3-yl)phenyl]pyridin-2-yl]-6-{1[(1-hydroxycyclobutyl)methoxy]methyl}-4-(trifluoromethyl)-3H-isoindol-1-one] | < 0.2 | < 0.2 | ≤ 0.2
CCNc1cc(-c2ccc(F)cc2-c2nncn2C)cc(N2Cc3c(cc(COCC(C)(C)O)cc3C(F)(F)F)C2=O)n1 [AFG-1, 2-[6-(Ethylamino)-4-[4-fluoro-2-(4-methyl-1,2,4-triazol-3-yl)phenyl]pyridin-2-yl]-6-[(2-hydroxy-2-methylpropoxy)methyl]-4-(trifluoromethyl)-3H-isoindol-1-one] | 0.2 to 1 | < 0.2 | ≤ 0.2
Cn1cnnc1-c1cc(F)ccc1-c1cc(C2CC2)nc(N2Cc3ccc(CNCC4(O)CCC4)cc3C2=O)c1 [AFH-1, 2-{6-Cyclopropyl-4-[4-fluoro-2-(4-methyl-1,2,4-triazol-3-yl)phenyl]pyridin-2-yl}-6-({[(1-hydroxycyclobutyl)methyl]amino}methyl)-3H-isoindol-1-one] | < 0.2 | < 0.2 | ≤ 0.2
Cn1cnnc1-c1cnn(C)c1-c1cc(C2CC2)nc(N2Cc3ccc(CNCC4(O)CCC4)cc3C2=O)c1 [AFI-1, 2-{6-Cyclopropyl-4-[2-methyl-4-(4-methyl-1,2,4-triazol-3-yl)pyrazol-3-yl]pyridin-2-yl}-6-({[(1-hydroxycyclobutyl)methyl]amino}methyl)-3H-isoindol-1-one] | < 0.2 | < 0.2 | ≤ 0.2
Cn1cnnc1-c1cc(C#N)ccc1-c1cc(C2CC2)nc(N2Cc3ccc(CNCC4(O)CCC4)cc3C2=O)c1 [AFJ-1, 4-{2-Cyclopropyl-6-[6-({[(1-hydroxycyclobutyl)methyl]amino}methyl)-1-oxo-3H-isoindol-2-yl]pyridin-4-yl}-3-(4-methyl-1,2,4-triazol-3-yl)benzonitrile] | < 0.2 | < 0.2 | ≤ 0.2
Cn1cnnc1-c1cc(F)ccc1-c1cc(C2CC2)nc(N2Cc3c(cc(CO)cc3C(F)(F)F)C2=O)c1 [AFK-1, 2-{6-Cyclopropyl-4-[4-fluoro-2-(4-methyl-1,2,4-triazol-3-yl)phenyl]pyridin-2-yl}-6-(hydroxymethyl)-4-(trifluoromethyl)-3H-isoindol-1-one] | < 0.2 | < 0.2 | ≤ 0.2
